# System: drug-resistant Mycobacterium tuberculosis
# Settings: 5 micrograms per ml
smiles,measurement,value
CC(C)C[C@H](NC(=O)[C@H](Cc1ccccc1)NC(=O)CNC(=O)CNC(=O)[C@@H](N)Cc1ccc(O)cc1)C(=O)N[C@@H](CCCNC(=N)N)C(=O)N[C@@H](CCCNC(=N)N)C(=O)N[C@@H](CCC(N)=O)C(=O)N[C@@H](Cc1ccccc1)C(=O)N[C@@H](CCCCN)C(=O)N[C@H](C(=O)N[C@H](C(=O)N[C@H](C(=O)O)[C@@H](C)O)C(C)C)C(C)C [Dynorphin B],% inhibition,0.0%
